# In US11753403B2, “EIF4E inhibitors and uses thereof” (PIC Therapeutics, Inc., priority 2020, dated 2023):
# Molecular target: Human eIF4E (aa 28-217) / biotin labeled 4G2 peptide (Homo sapiens (Human), UniProt P06730)
# Test: Human eIF4E/4G2 binding assay (TR-FRET)
# Settings: Human eIF4E/4G2 TR-FRET binding assay; head says IC50, legend says EC50
# Method: Example 5. Compound Testing in Human eIF4E/4G2 Binding Assay
# Human eIF4E (aa 28-217) with a C-terminal His-tag was expressed in E. coli in inclusion bodies. The protein was solubilized with 8 M urea and purified under denaturing conditions using nickel-charged HisTrap HP columns (GE Healthcare). The purified protein was then refolded by diluting in 20 mM Hepes pH 7.0, 0.5 M NaCl, 1 mM DTT, 1 mM EDTA, 0.5 M arginine plus 6 M urea, and then dialyzing overnight into the same buffer without the urea. The protein was further dialyzed into 20 mM Hepes, pH 6.5, 50 mM NaCl, 1 mM EDTA, 1 mM DTT, and concentrated using Hitrap SP sepharose FF columns (GE Healthcare). The concentrated protein was dialyzed into 20 mM Hepes, pH 7.0, 0.5M NaCl, 5 mM DTT and 10% glycerol, and stored at −80° C. until use.
# Test compounds (3.43 mM stock in DMSO) were diluted 2-fold in series in DMSO (10 concentration points). Compound solutions (1.2 μl/well) were added into black 384-well polypropylene microplates (Matrix, Thermal Scientific). Twenty-two microliters per well of Assay Buffer (50 mM NaPi, pH 6.5, 50 mM KCl, 1 mM DTT and 0.5 mg/ml gamma globulin) and eight microliters per well of 82.5 nM purified eIF4E in Assay Buffer were added. The samples were incubated at room temperature (20-23° C.) for 4 hours. Biotin labeled 4G2 peptide (Ac-Lys-Gln-Tyr-Asp-Arg-Glu-Phe-Leu-Leu-Asp-Phe-Gln-Phe-Met-Pro-Lys(Aha-Bio)-NH2, 1.75 μM stock in DMSO) was diluted to 0.14 μM in Assay Buffer (without DTT) and 5 μl/well was added. The samples were incubated at room temperature for 20 min. Five microliters per well of 6.4 nM Eu-streptavidin (Eu-SA, Perkin Elmer) and 80 nM Allophycocyanin (APC)-anti His antibody (Columbia Biosciences) in Assay Buffer (without DTT) were then added and the samples were incubated at room temperature for 20 min.
# Assay signals were monitored by reading excitation at 340 nm and emission fluorescence at 615 nm and 665 nm on an Envision reader (Perkin Elmer). Normalized TR-FRET (time-resolved fluorescence resonance energy transfer) assay signal (Rn) was calculated by the formula: Rn=[(A−Ba−C×D)/(D−Bd)]×(Dc−Bd) Where A is the fluorescence intensity of the sample at 665 nm, • D is the fluorescence intensity of the sample at 615 nm, • Ba and Bd are plate backgrounds at 665 nm and 615 nm, respectively, • Dc is the fluorescence intensity of 0.78 nM Eu-SA in the assay buffer at 615 nm The cross-talk factor (C) is determined by the following formula: C=(Ac−Ba)/(Dc−Bd) Where Ac is the fluorescence intensity of 0.78 nM Eu-SA in the assay buffer at 665 nm.
# IC50 values were calculated using xLFit program (IDBS). Table 2 below lists EC50 of some compounds, wherein A represents EC50≤1 uM; B represents 1 uM<EC50≤10 uM; and C represents EC50>10 uM.
# Human eIF4E (aa 28-217) / biotin labeled 4G2 peptide, sequence (P06730 28-217): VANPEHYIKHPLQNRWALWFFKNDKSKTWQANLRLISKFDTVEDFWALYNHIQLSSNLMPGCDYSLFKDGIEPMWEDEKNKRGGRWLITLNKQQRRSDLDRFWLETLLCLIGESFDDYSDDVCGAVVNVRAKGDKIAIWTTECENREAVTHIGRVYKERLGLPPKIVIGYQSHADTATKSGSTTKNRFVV
row,SMILES,IC50 [nM]
1,"CC(C)Cc1sc(NCC(Cc2cccc(C(=O)N(C)C)c2)C(=O)O)nc1-c1ccc(Cl)c(Cl)c1 (stereo not drawn) [I-168, 3-(4-(3,4-dichlorophenyl)-5-isobutylthiazol-2-ylamino)-2-(3-(dimethylcarbamoyl)benzyl)propanoic acid]",1000 to 10000
2,"CC(C)Cc1sc(-c2cccc(C(=O)O)c2)nc1-c1ccc(Cl)c(Cl)c1 [I-203, 3-(4-(3,4-dichlorophenyl)-5-isobutylthiazol-2-yl)benzoic acid]",1000 to 10000
3,"O=Cc1sc(N(CCC(=O)O)Cc2ccccc2)nc1-c1ccc(Cl)c(Cl)c1 [I-119, 3-(benzyl(4-(3,4-dichlorophenyl)-5-formylthiazol-2-yl)amino)propanoic acid]",1000 to 10000
4,CC(C)c1sc(NCC(Cc2ccc3[nH]ccc3c2)C(=O)O)nc1-c1ccc(Cl)c(Cl)c1 (stereo not drawn) [I-10],1000 to 10000
5,CC(C)Cc1sc(N(CCC(=O)O)Cc2ccc(O)cc2)nc1-c1ccc(Cl)c(Cl)c1 [I-73],1000 to 10000
6,"CC(C)c1sc(Nc2ncccc2C(=N)N)nc1-c1ccc(Cl)c(Cl)c1 [I-284, 2-(4-(3,4-dichlorophenyl)-5-isopropylthiazol-2-ylamino)nicotinimidamide]",> 10000
7,COc1ccccc1CC(CNc1nc(-c2ccc(Cl)cc2)c(C(C)C)s1)C(=O)O (stereo not drawn) [I-40],1000 to 10000
8,CC(C)Cc1sc(N(CCC(=O)O)CC(N)=O)nc1-c1ccc(Cl)c(Cl)c1 [I-64],1000 to 10000
9,CC(C)Cc1sc(N(CCC(N)=O)Cc2ccccc2)nc1-c1ccc(Cl)c(Cl)c1 [I-189],> 10000
10,"CSc1sc(NCC(Cc2ccccc2)C(=O)O)nc1-c1ccc(Cl)c(Cl)c1 (stereo not drawn) [I-206, 2-benzyl-3-(4-(3,4-dichlorophenyl)-5-(methylthio)thiazol-2-ylamino)propanoic acid]",1000 to 10000
11,"CC(C)Cc1sc(N(CCNC(=N)N)Cc2ccccc2)nc1-c1ccc(Cl)c(Cl)c1 [I-232, 2-(2-(benzyl(4-(3,4-dichlorophenyl)-5-isobutylthiazol-2-yl)amino)ethyl)guanidine]",1000 to 10000
12,CC(C)Cc1sc(NCC(Cc2cccc(S(N)(=O)=O)c2)C(=O)O)nc1-c1ccc(Cl)c(Cl)c1 (stereo not drawn) [I-173],1000 to 10000
13,CC(C)Cc1sc(NCC(Cc2cccnc2)C(=O)O)nc1-c1ccc(Cl)c(Cl)c1 (stereo not drawn) [I-155],1000 to 10000
14,CSc1ccc(-c2nc(N(CCC(=O)O)Cc3ccccc3)sc2CC(C)C)cc1 [I-127],1000 to 10000
15,"CC(C)Cc1sc(N(CCCN)Cc2ccccc2)nc1-c1ccc(Cl)c(Cl)c1 [I-191, N^1-benzyl-N^1-(4-(3,4-dichlorophenyl)-5-isobutylthiazol-2-yl)propane-1,3-diamine]",1000 to 10000
16,"CC(C)Cc1sc(N(CCS(=O)(=O)NC(=O)CN)Cc2ccccc2)nc1-c1ccc(Cl)c(Cl)c1 [I-187, 2-amino-N-(2-(benzyl(4-(3,4-dichlorophenyl)-5-isobutylthiazol-2-yl)amino)ethylsulfonyl)acetamide]",> 10000
17,O=C(O)C(CNc1nc(-c2ccc(Cl)c(Cl)c2)c(CC2CC2)s1)Cc1ccccc1 (stereo not drawn) [I-179],1000 to 10000
18,"CS(=O)(=O)c1sc(NCC(Cc2ccccc2)C(=O)O)nc1-c1ccc(Cl)c(Cl)c1 (stereo not drawn) [I-181, 2-benzyl-3-(4-(3,4-dichlorophenyl)-5-(methylsulfonyl)thiazol-2-ylamino)propanoic acid]",> 10000
19,CC(C)c1sc(NCC(Cc2cccc(F)c2)C(=O)O)nc1-c1ccc(Cl)cc1 (stereo not drawn) [I-42],1000 to 10000
20,COc1cccc(-c2nc(NCC(Cc3cccc4cc[nH]c34)C(=O)O)sc2C(C)C)c1 (stereo not drawn) [I-34],1000 to 10000
21,COc1cccc(-c2nc(NCC(Cc3c[nH]c4ccccc34)C(=O)O)sc2C(C)C)c1 (stereo not drawn) [I-36],1000 to 10000
22,CC(C)Cc1sc(N(CCC(=O)O)Cc2ccccc2)nc1-c1cc(F)c(F)c(F)c1 [I-81],1000 to 10000
23,"CC(C)Cc1sc(NCC(Cc2cnc(O)nc2)C(=O)O)nc1-c1ccc(Cl)c(Cl)c1 (stereo not drawn) [I-159, 3-(4-(3,4-dichlorophenyl)-5-isobutylthiazol-2-ylamino)-2-((2-hydroxypyrimidin-5-yl)methyl)propanoic acid]",1000 to 10000
24,"CC(C)Cc1sc(N(CCCCN)CCC(=O)O)nc1-c1ccc(Cl)c(Cl)c1 [I-146, 3-((4-aminobutyl)(4-(3,4-dichlorophenyl)-5-isobutylthiazol-2-yl)amino)propanoic acid]",> 10000
25,CC(C)c1sc(NCC(Cc2ccccc2)C(=O)O)nc1-c1ccc(Cl)cc1 (stereo not drawn) [I-38],1000 to 10000
26,CC(C)c1sc(NCC(Cc2cccc3c2OCO3)C(=O)O)nc1-c1ccc(Cl)cc1 (stereo not drawn) [I-39],1000 to 10000
27,CC(C)Cc1sc(N(CCC(=O)NCc2ncc[nH]2)Cc2ccccc2)nc1-c1ccc(Cl)c(Cl)c1 [I-195],> 10000

# Second part, the compound after the results:
row,IC50 [nM],SMILES
1,≤ 1000,"CC(C)c1sc(NCC(Cc2cccc3cc[nH]c23)C(=O)O)nc1-c1ccc(Cl)c(Cl)c1 (stereo not drawn) [I-7, 2-((1H-indol-7-yl)methyl)-3-(4-(3,4-dichlorophenyl)-5-isopropylthiazol-2-ylamino) propanoic acid]"
2,≤ 1000,CC(C)Cc1sc(N(CCC(=O)O)Cc2ccc3[nH]ccc3c2)nc1-c1ccc(Cl)c(Cl)c1 [I-55]
3,≤ 1000,CC(C)Cc1sc(N2CCN(C(=O)c3cccs3)C(C(=O)O)C2)nc1-c1ccc(Cl)c(Cl)c1 (stereo not drawn) [I-248]
4,≤ 1000,CC(C)Cc1sc(NCC(Cc2cccc3[nH]ccc23)C(=O)O)nc1-c1ccc(Cl)c(Cl)c1 (stereo not drawn) [I-25]
5,≤ 1000,CC(C)Cc1sc(N(CC(=O)O)Cc2ccccc2)nc1-c1ccc(Cl)c(Cl)c1 [I-59]
6,≤ 1000,"Cn1nnnc1-c1sc(Nc2ncccc2C(=O)O)nc1-c1ccc(Cl)c(Cl)c1 [I-257, 2-(4-(3,4-dichlorophenyl)-5-(1-methyl-1H-tetrazol-5-yl)thiazol-2-ylamino)nicotinic acid]"
7,≤ 1000,CC(C)c1sc(NCC(Cc2cccc3c2OCO3)C(=O)O)nc1-c1ccc(Cl)c(Cl)c1 (stereo not drawn) [I-2]
8,≤ 1000,CC(C)c1sc(Nc2ncc(C3CC3)cc2C(=O)O)nc1-c1ccc(Cl)c(Cl)c1 [I-283]
9,≤ 1000,CC(C)Cc1sc(Nc2cc(NC(=O)c3ccccc3)cc(C(=O)O)c2)nc1-c1ccc(Cl)c(Cl)c1 [I-217]
10,≤ 1000,CC(C)Cc1sc(N(CCC(=O)O)CCc2ccccc2)nc1-c1ccc(Cl)c(Cl)c1 [I-52]
11,≤ 1000,CC(C)c1sc(Nc2c(C(=O)O)sc3ccccc23)nc1-c1ccc(Cl)c(Cl)c1 [I-280]
12,≤ 1000,"CC(C)Cc1sc(N(Cc2ccccc2)CC(O)C(=O)O)nc1-c1ccc(Cl)c(Cl)c1 (stereo not drawn) [I-190, 3-(benzyl(4-(3,4-dichlorophenyl)-5-isobutylthiazol-2-yl)amino)-2-hydroxypropanoic acid]"
13,≤ 1000,CC(C)Cc1sc(NCC(Cc2ccc3[nH]ccc3c2)C(=O)O)nc1-c1ccc(Cl)c(Cl)c1 (stereo not drawn) [I-27]
14,≤ 1000,Cc1c(-c2ccccc2)sc(C(=O)O)c1Nc1nc(-c2ccc(Cl)c(Cl)c2)c(CC(C)C)s1 [I-275]
15,≤ 1000,CC(C)Cc1sc(N(CCCc2ccccc2)CCC(=O)O)nc1-c1ccc(Cl)c(Cl)c1 [I-96]
16,≤ 1000,"CC(C)Cc1sc(N(CCC(=O)O)Cc2ccccc2)nc1-c1ccc(Cl)c(Cl)c1 [I-47, 3-(benzyl(4-(3,4-dichlorophenyl)-5-isobutylthiazol-2-yl)amino)propanoic acid]"
17,≤ 1000,"CC(C)c1sc(Nc2ncc(-c3ccccc3)cc2C(=O)O)nc1-c1ccc(Cl)c(Cl)c1 [I-259, 2-(4-(3,4-dichlorophenyl)-5-isopropylthiazol-2-ylamino)-5-phenylnicotinic acid]"
18,≤ 1000,COc1ccc(Nc2nc(-c3ccc(Cl)c(Cl)c3)c(CC(C)C)s2)cc1C(=O)O [I-210]
